# Results published in US20210322375A1, “COMBINATION DRUG FORMULATIONS FOR TREATING PATIENTS WITH CARDIOVASCULAR DISEASE AND ASSOCIATED CONDITIONS” (Esperion Therapeutics, Inc., priority 2018, published 2021).
# Experiments:
# [1] = system: hypercholesterolemic patients; experiment: Phase 2b trial: treatment-emergent adverse events and laboratory safety
# Description: Study Population. Medically stable, hypercholesterolemic men and women aged 18 through 80 years with a body mass index between 18 to 45 kg/m^2 were included in the study. […] The study population included both statin-tolerant and statin-intolerant participants. Statin intolerance was defined as the inability to tolerate ≥2 statins because of muscle-related symptoms such as pain, weakness, or cramping that began or increased during statin therapy and resolved on statin discontinuation. At least 1 statin must have been administered at the lowest approved daily dose, defined as rosuvastatin 5 mg, atorvastatin 10 mg, simvastatin 10 mg, lovastatin 20 mg, pravastatin 40 mg, fluvastatin 40 mg, or pitavastatin 2 mg. Treatment with less than the lowest approved daily dose of a statin (i.e., skipping days) was considered equivalent to not tolerating 1 statin at the lowest approved daily dose.
# Overall Study Design and Plan. […] Patients underwent a 5-week washout of all lipid-regulating drugs and dietary supplements and abstained from these drugs and supplements throughout the study. Patients also underwent a 5-week patient-only-blinded placebo run-in during the screening period (week −5 to week 0). This single-blind placebo run-in period was used to eliminate patients with muscle-related AEs during placebo treatment. Patients reporting new or worsening, unexplained muscle-related AEs during this run-in period were excluded from the study.
# Patients were stratified (1:1) by history of statin intolerance and randomized at week 0 in a 4:4:4:1:1 ratio to once-daily treatment with capsules containing ETC-1002 120 mg, ETC-1002 180 mg, EZE, ETC-1002 120 mg plus EZE, or ETC-1002 180 mg plus EZE. […] A contract laboratory (Medpace Inc., Cincinnati, Ohio), performed all clinical laboratory tests. LDL-C was calculated using the Friedewald equation. Phlebotomy was performed after a minimum 12-hour fast (water was allowed) and only if the patient took their dose of study drug the previous day.
# Safety Endpoints. The safety of ETC-1002 was assessed using treatment-emergent AEs; hematology, serum chemistry, and urinalysis laboratory values; physical examination findings; vital sign measurements; electrocardiogram (ECG) readings; weight; and ankle and waist circumference measurements. AEs were coded using the Medical Dictionary for Regulatory Activities version 16.0 and evaluated by the investigator for severity and relation to study drug. Muscle-related AEs were defined as those from the system organ class of musculoskeletal and connective tissue disorders, except for those that were not obviously muscle related. Terms included in the muscle-related AE analysis were selected from this system organ class after database lock and before unblinding.
# Safety analyses were performed on the safety population, which included randomized patients who received at least 1 dose of study drug. Baseline patient characteristics were summarized for the safety population by treatment group and statin-tolerance subgroup.
# Muscle-related AEs also were summarized by statin-tolerance subgroup.
# [2] = system: hypercholesterolemic patients; experiment: Phase 2b randomized double-blind trial: percent change from baseline to week 12 in lipids and CRP; format: in vivo, human
# Description: Brief Description of Clinical Study and Results.
# Study Objectives. The primary objective was to assess the LDL-C-lowering effect of ETC-1002 monotherapy (120 mg or 180 mg daily) versus EZE monotherapy in hypercholesterolemic patients with or without statin intolerance. Secondary objectives were to characterize the dose response of ETC-1002, evaluate the impact of treatment on other lipid and cardiometabolic biomarkers, compare the LDL-C-lowering effect of ETC-1002 plus EZE combination therapy with EZE monotherapy, and characterize the safety and tolerability of the treatment regimens, including muscle-related adverse events (AEs).
# Overall Study Design and Plan. […] 16, 2013 to Aug.
# LDL-C was calculated using the Friedewald equation.
# Efficacy Endpoints. The primary endpoint was the percent change from baseline to week 12 in calculated LDL-C in patients treated with ETC-1002 monotherapy versus those treated with EZE alone. Secondary endpoints included the dose-response relationship between ETC-1002 and the percent change in LDL-C from baseline to week 12, the percent change in LDL-C from baseline to week 12 in patients treated with ETC-1002 plus EZE versus those treated with EZE alone, and the percent change from baseline to week 12 for all treatment groups in LDL particle number, apolipoprotein B, total cholesterol, non-high-density lipoprotein cholesterol (non-HDL-C), HDL-C, HDL particle number, apolipoprotein A-I, triglycerides, very-low-density lipoprotein (VLDL) particle number, and high-sensitivity C-reactive protein (CRP). Lipoprotein particle number was measured using nuclear magnetic resonance […].
# Statistical Plan and Analyses. The study was designed to include 322 patients: 92 patients in each monotherapy group and 23 patients in each combination therapy group. Sample size calculations were performed using nQuery Advisor® version 7.0 (Statistical Solutions, Cork, Ireland). The sample size of 92 patients per monotherapy group was expected to provide 90% power to detect a difference of 10% in the absolute percent change from baseline to week 12 in LDL-C between either ETC-1002 treatment group and the EZE monotherapy group. This calculation was based on a 2-sided t test at the 5% level of significance and assumed a common standard deviation of 15% in the statin-tolerant patients and 22% in the statin-intolerant patients with a dropout rate of 15%.
# An analysis of covariance was used to compare each ETC-1002 treatment group with EZE monotherapy for each of the efficacy endpoints. The primary model included the effects of treatment and statin intolerance and the baseline value as a covariate. Baseline was defined as the mean of values from weeks −1 and 0 for LDL-C, non-HDL-C, total cholesterol, HDL-C, and triglycerides. For all other lipid and biomarker measures, baseline was defined as the last value before the first dose of study drug. Missing values at week 12 were imputed using the last-observation-carried-forward procedure. When LDL-C could not be calculated (i.e., triglycerides >400 mg/dL), beta-quantification measurements were used to determine LDL-C values. Least-squares (LS) means and standard errors were obtained for each treatment group; differences in LS means and p-values were obtained for the treatment comparisons. Graphical methods (e.g., normal probability plot and histogram of residuals, plot of residuals vs. predicted values) or analytical methods (e.g., Shapiro-Wilk test), or both, were used to assess the model assumptions. Because of departures from normality observed in the parameters of triglycerides, CRP, and VLDL particle number, nonparametric analyses were performed for these measures, with p-values obtained from the Wilcoxon rank-sum test and median values presented.
# Percent changes from baseline in LDL-C also were summarized by statin-tolerance subgroup. […]
# [3] = EZE 10 mg daily, safety population n = 99
# [4] = statin-intolerant patients, EZE 10 mg, n = 51
# [5] = statin-tolerant patients, EZE 10 mg, n = 48
# [6] = EZE 10 mg daily, mITT n = 98, LS mean ± SE
# [7] = EZE 10 mg daily, mITT n = 98, median (interquartile range)
structure (smiles),measurement,setting,value
"O=C1[C@H](CC[C@H](O)c2ccc(F)cc2)[C@@H](c2ccc(O)cc2)N1c1ccc(F)cc1 [EZE, (3R,4S)-1-(4-fluorophenyl)-3-[(3S)-3-(4-fluorophenyl)-3-hydroxypropyl]-4-(4-hydroxyphenyl)azetidin-2-one, reference compound]","ALT or AST, or both, increased >3 times the upper limit of normal at any measurement",[1]; EZE,1 patient
same,Serious AE reported (event),[1]; EZE,transient ischemic attack
same,"ALT increased, patients",[1]; [3],1 (1%) n (%)
same,"AST increased, patients",[1]; [3],0 n (%)
same,"Any AE(s), patients",[1]; [3],53 (54%) n (%)
same,"Arthralgia, patients",[1]; [3],4 (4%) n (%)
same,"Back pain, patients",[1]; [3],8 (8%) n (%)
same,"Blood CK increased, patients",[1]; [3],1 (1%) n (%)
same,"Constipation, patients",[1]; [3],1 (1%) n (%)
same,"Discontinuation due to AE(s), patients",[1]; [3],8 (8%) n (%)
same,"Headache, patients",[1]; [3],1 (1%) n (%)
same,"Myalgia, patients",[1]; [3],6 (6%) n (%)
same,"Nasopharyngitis, patients",[1]; [3],4 (4%) n (%)
same,"Serious AE(s), patients",[1]; [3],1 (1%) n (%)
same,"Study drug-related AE(s), patients",[1]; [3],19 (19%) n (%)
same,"Upper respiratory tract infection, patients",[1]; [3],1 (1%) n (%)
same,"Urinary tract infection, patients",[1]; [3],6 (6%) n (%)
same,"Myalgia, patients, entire study population",[1]; EZE alone,6%
same,"Any muscle-related AE, patients",[1]; [4],9 (18%) n (%)
same,"Muscle spasms, patients",[1]; [4],1 (2%) n (%)
same,"Muscle-related AE leading to discontinuation, patients",[1]; [4],5 (10%) n (%)
same,"Muscular weakness, patients",[1]; [4],1 (2%) n (%)
same,"Musculoskeletal chest pain, patients",[1]; [4],0 n (%)
same,"Musculoskeletal stiffness, patients",[1]; [4],1 (2%) n (%)
same,"Myalgia, patients",[1]; [4],6 (12%) n (%)
same,"Pain in extremity, patients",[1]; [4],3 (6%) n (%)
same,"Sensation of heaviness, patients",[1]; [4],1 (2%) n (%)
same,"Any muscle-related AE, patients",[1]; [5],3 (6%) n (%)
same,"Muscle spasms, patients",[1]; [5],2 (4%) n (%)
same,"Muscle-related AE leading to discontinuation, patients",[1]; [5],1 (2%) n (%)
same,"Musculoskeletal pain, patients",[1]; [5],1 (2%) n (%)
same,"Myalgia, patients",[1]; [5],0 n (%)
same,"Apolipoprotein A-I, percent change from baseline to week 12",[2]; [6],2.0 ± 1.1%
same,"Apolipoprotein B, percent change from baseline to week 12",[2]; [6],−15.2 ± 1.2%
same,"HDL particle number, percent change from baseline to week 12",[2]; [6],6.7 ± 1.3%
same,"HDL-C, percent change from baseline to week 12",[2]; [6],5.0 ± 1.4%
same,"LDL particle number, percent change from baseline to week 12",[2]; [6],−12.7 ± 1.7%
same,"LDL-C, percent change from baseline to week 12",[2]; [6],−21.2 ± 1.3%
same,"Non-HDL-C, percent change from baseline to week 12",[2]; [6],−18.7 ± 1.2%
same,"Total cholesterol, percent change from baseline to week 12",[2]; [6],−14.3 ± 0.9%
same,"CRP, percent change from baseline to week 12",[2]; [7],−10.5 (59.0) %
same,"Triglycerides, percent change from baseline to week 12",[2]; [7],−7.0 (34.9) %
same,"VLDL particle number, percent change from baseline to week 12",[2]; [7],−12.6 (63.4) %
same,CRP reduction,[2]; EZE alone,10%
same,HDL-C increase,"[2]; EZE alone, week 12",5%
